For assay [1], the system named is c-NHEJ. To be noted: cited from earlier work.
Assay [2] concerns the target T1, Ku-4E (Ku70 H359E-H360E/Ku80 K413E H414E) (Homo sapiens, UniProt P12956+P13010, H359E/H360E/H414E/K413E).
T1 construct: 10x His-tag with TEV site (same vector as KuFL) (N); made in house; host or cells: Sf21 insect cells
Briefly: ITC, Ku-4E mutant with IP6. In kind it is binding. The procedure: Purification of Ku full-length (KuFL) for cryo-EM experiments was carried out as described previously ([5]). Expression and purification of KuFL for biophysical experiments was carried out as described previously ([20]). The full-length human Ku heterodimer subunits (Ku70 1–609, Ku80 1–732) were cloned into a Multibac vector ([21]). The construct has a 10× His-tag and a TEV site on the N-terminus of Ku80 and no-tag on Ku70. Protein production was initiated in Sf21 cells by infection with the baculovirus stock at MOI of 5 × 10^−3 and cells were collected 5–6 days after the infection (3–4 days after the proliferation arrest). Cells were sonicated and the supernatant was incubated with Benzonase (300 units for 30 min at 4°C). The Ku heterodimer was purified on a NiNTA-Agarose affinity column (Protino, Macherey Nagel) with a 1 M NaCl wash step to remove DNA excess. The eluted Ku was then bound onto an anion exchange column (Resource Q, Cytiva) equilibrated in 20 mM Tris pH 8.0, 50 mM NaCl, 50 mM KCl, 10 mM β-mercaptoethanol and eluted with a salt gradient. […]
Calorimetry. Interactions between KuFL and inositol phosphates (IPs) (IP6 and IP6 analogues) were determined by Isothermal Titration Calorimetry (ITC) using a VP-ITC calorimeter (Malvern). […] The free energy of binding (ΔG) and the entropy (ΔS) were determined using the classical thermodynamic formula, ΔG = - RT ln(Ka) and ΔG = ΔH - TΔS. […]

Assay [3] concerns the target Ku. More on the design: method as in PMID 18776215. The following applies: competition assays with 3H-IP6; cited from earlier work.
In assay [4] the test system is S. cerevisae Ku. More on the design: method as in PMID 11953323. To be noted: cited from earlier work.
For assay [5], the target named is T2, KuFL (Homo sapiens, UniProt P12956+P13010).
T2 construct: The full-length human Ku heterodimer subunits (Ku70 1–609, Ku80 1–732); 10x His-tag with TEV site (N); made in house; host or cells: Sf21 insect cells (baculovirus, MultiBac)
T2 sequence (P12956 whole entry): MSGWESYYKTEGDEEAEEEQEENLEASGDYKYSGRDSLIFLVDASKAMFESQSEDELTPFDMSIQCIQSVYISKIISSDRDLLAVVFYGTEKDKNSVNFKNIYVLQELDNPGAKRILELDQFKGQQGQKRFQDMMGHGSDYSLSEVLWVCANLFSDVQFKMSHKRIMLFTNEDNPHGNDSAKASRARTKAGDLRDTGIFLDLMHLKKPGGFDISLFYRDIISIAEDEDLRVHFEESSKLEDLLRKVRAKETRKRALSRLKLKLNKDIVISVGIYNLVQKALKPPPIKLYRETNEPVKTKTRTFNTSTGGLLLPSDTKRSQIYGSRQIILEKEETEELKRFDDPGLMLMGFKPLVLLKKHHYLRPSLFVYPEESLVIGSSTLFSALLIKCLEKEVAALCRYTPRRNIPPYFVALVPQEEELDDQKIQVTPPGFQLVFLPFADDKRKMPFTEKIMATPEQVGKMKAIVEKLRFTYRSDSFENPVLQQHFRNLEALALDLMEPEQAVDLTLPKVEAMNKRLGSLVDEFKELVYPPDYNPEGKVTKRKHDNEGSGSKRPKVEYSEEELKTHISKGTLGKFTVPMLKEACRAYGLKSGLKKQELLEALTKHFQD
T2 sequence (P13010 whole entry): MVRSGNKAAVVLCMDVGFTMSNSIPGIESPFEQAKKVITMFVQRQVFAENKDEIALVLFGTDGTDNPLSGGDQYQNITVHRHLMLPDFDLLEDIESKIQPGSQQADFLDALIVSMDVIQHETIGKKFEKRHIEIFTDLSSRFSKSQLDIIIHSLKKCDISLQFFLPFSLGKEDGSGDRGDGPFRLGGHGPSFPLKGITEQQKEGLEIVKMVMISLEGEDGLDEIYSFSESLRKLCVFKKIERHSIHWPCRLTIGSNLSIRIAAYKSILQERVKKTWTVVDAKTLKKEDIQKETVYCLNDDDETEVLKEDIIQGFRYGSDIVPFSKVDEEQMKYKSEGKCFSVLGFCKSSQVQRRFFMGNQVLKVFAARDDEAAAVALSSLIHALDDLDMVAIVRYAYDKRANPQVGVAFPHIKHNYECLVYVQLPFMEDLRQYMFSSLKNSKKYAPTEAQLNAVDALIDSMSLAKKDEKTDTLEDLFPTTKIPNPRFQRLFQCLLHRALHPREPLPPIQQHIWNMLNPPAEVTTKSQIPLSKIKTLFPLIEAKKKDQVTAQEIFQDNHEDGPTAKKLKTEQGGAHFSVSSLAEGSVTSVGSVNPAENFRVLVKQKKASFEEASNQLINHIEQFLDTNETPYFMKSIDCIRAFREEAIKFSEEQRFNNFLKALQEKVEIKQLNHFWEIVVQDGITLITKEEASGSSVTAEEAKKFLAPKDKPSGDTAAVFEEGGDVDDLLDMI
The assay is described as follows: nanoDSF thermal stability of KuFL. To be noted: in the absence of DNA, increasing IP6 concentrations. The procedure: nano-Differential Scanning Fluorimetry. nanoDSF measurements were performed on a Tycho NT.6 device (NanoTemper) with KuFL dialyzed against buffer 20 mM Tris HCl pH 8, 150 mM NaCl, 5 mM β-mercaptoethanol. We used 9 µL of KuFL at 5 µM in absence or presence of DNA at 7.5 µM to obtain a (1:1.5) molar ratio. Measurements were performed in presence of IP6 concentrations ranging from 0 to 10 µM. Stocks solutions of IP6 and analogues are prepared so that 1 µL of IPs solutions are used in the 10 µL capillary for all concentrations tested. Each point corresponds to an average of three measurements. The temperature of transition that corresponds to the change of environment of the tryptophan is deduced from the first inflexion point of the 330 nm/350 nm ratio versus temperature.

The target of assay [6] is T3, Ku-2E (Ku70-K357E, Ku80-K481E) (Homo sapiens, UniProt P12956+P13010, K357E/K481E).
T3 construct: 10x His-tag with TEV site (same vector as KuFL) (N); made in house; host or cells: Sf21 insect cells
T3 sequence (P12956 whole entry K357E): as the sequence (P12956 whole entry) above, with K357E counted along it
T3 sequence (P13010 whole entry K481E): as the sequence (P13010 whole entry) above, with K481E counted along it
Briefly: nanoDSF thermal stability of Ku-2E. The following applies: Ku-2E with DNA.

For assay [7], the target named is T1, Ku-4E (Ku70 H359E-H360E/Ku80 K413E H414E). Briefly: nanoDSF thermal stability of Ku-4E. The following applies: Ku-4E with DNA.

Each structure is given as a SMILES string.

T1 sequence (P12956 whole entry H359E/H360E): as the sequence (P12956 whole entry) above, with H359E, H360E counted along it
T1 sequence (P13010 whole entry K413E/H414E): as the sequence (P13010 whole entry) above, with K413E, H414E counted along it

As to `O=P(O)(O)O[C@H]1[C@H](OP(=O)(O)O)[C@@H](OP(=O)(O)O)[C@H](OP(=O)(O)O)[C@@H](OP(=O)(O)O)[C@H]1OP(=O)(O)O` [IP6, inositol hexaphosphate], the “effect on end-joining of a linear plasmid substrate and DNA-PK dependent phosphorylation of XLF” value in assay [1] (human cell extracts) was “stimulated”. In addition, in assay [1] (human whole-cell extracts), the “effect on c-NHEJ” value is given as “stimulate c-NHEJ”. Further, in assay [2], the “interaction with IP6 as measured by ITC” value is recorded as “no interaction”. In addition, the equilibrium dissociation constant (Kd) in assay [3] is 0.046 µM. Moreover, the “interaction between S. cerevisae Ku and IP6” value in assay [4] is reported as “absence of interactions”. The “effect on Ku thermal stability” value in assay [5] was “no significant effect”. Besides, in assay [6], the “extra thermal stabilization by IP6” value is listed as “no extra stabilization”. Besides, in assay [7], the “further thermal stabilization by IP6” value is “not further stabilized”.

(Values after article PMC10682503, “Structural and functional basis of inositol hexaphosphate stimulation of NHEJ through stabilization of Ku-XLF interaction” (Nucleic Acids Research, 2023).)
